Literature values, collected in patent EP1935424A1, “PHARMACEUTICAL COMPOSITIONS COMPRISING COMBINED ANTIDIABETIC SUBSTANCES FOR USE IN DIABETES MELLITUS” (ESPINOZA ABDALA, Leopoldo de Jesús, priority 2005, dated 2007).
Like-named read-outs stand apart in the source and are kept apart here.

Key:
[1] = for metabolized by: enzymes named; for bioavailability / tmax (plasma peak following administration): oral; for half-life (clearance half-life in plasma): parent compound; for eliminated by renal route without being metabolized: share of the administered dose as non-metabolized drug; for absorption: oral / gastrointestinal tract, in words
[2] = route of clearance, table Sulfonylureas: Pharmacokinetc Properties
[3] = table Sulfonylureas: Pharmacokinetc Properties, unit not given

Clearance [1, 2] | Action duration [1, 3] | metabolized by [1] | tmax (plasma peak following administration) [1] | half-life (clearance half-life in plasma) [1] | binds to plasma proteins (plasma proteins) | Compound | further results
Hepatic and renal | 24 |  |  |  |  | CCC1=C(C)CN(C(=O)NCCc2ccc(S(=O)(=O)NC(=O)N[C@H]3CC[C@H](C)CC3)cc2)C1=O [Glimepiride] | 
Hepatic and renal | 24-72 |  |  | 24 to 48 h |  | CCCNC(=O)NS(=O)(=O)c1ccc(Cl)cc1 [Chlorpropamide] | eliminated by renal route without being metabolized [1]: about 20%
 | 5-10 |  |  |  |  | Cc1cnc(C(=O)NCCc2ccc(S(=O)(=O)NC(=O)NC3CCCCC3)cc2)cn1 [Glipizide] | 
Hepatic | 2-4 |  |  |  |  | COc1ccc2c(c1)C(=O)N(CCc1ccc(S(=O)(=O)NC(=O)NC3CCCCC3)cc1)C(=O)C2(C)C [Gliquidone] | 
Hepatic | 12-13 |  |  |  |  | Cc1ccc(S(=O)(=O)NC(=O)NN2CC3CCCC3C2)cc1 (centres unmarked) [Glicazide] | 

More lines, now with the values behind:

Compound | Clearance [1, 2] | Action duration [1, 3] | metabolized by [1] | tmax (plasma peak following administration) [1] | half-life (clearance half-life in plasma) [1] | binds to plasma proteins (plasma proteins) | further results
CN(CCOc1ccc(CC2SC(=O)NC2=O)cc1)c1ccccn1 (centres unmarked) [Rosiglitazone] |  |  | cytochrome P450 isoenzymes 2C8 and 2C9 | 1 h | 3 to 4 h | 99.8% | eliminated in feces ([1]; in vivo): 23%; eliminated in urine ([1]; in vivo): 64%; bioavailability [1]: 99%
CC(C)[C@H]1CC[C@H](C(=O)N[C@H](Cc2ccccc2)C(=O)O)CC1 [Nateglinide] |  |  | CYP3A4 and CYP2C9 | 1 h | about 1.5 hours | 97% | bioavailability [1]: greater than 70%; absorption [1]: rapidly absorbed; eliminated by renal route without being metabolized [1]: About 16%
CN(C)C(=N)N=C(N)N [Metformin] |  |  |  |  |  |  | absorption is completed in ([1]; gastrointestinal tract): about 6 hours; excreted by renal route ([1]; of an oral dose in 12 hours): 90%
C[C@H]1O[C@H](O[C@H]2[C@H](O)[C@@H](O)[C@@H](O[C@H]3[C@H](O)[C@@H](O)C(O)O[C@@H]3CO)O[C@@H]2CO)[C@H](O)[C@@H](O)[C@@H]1N[C@H]1C=C(CO)[C@@H](O)[C@H](O)[C@H]1O (some centres unmarked) [Acarbose] |  |  |  |  |  |  | absorbed orally ([1]; in vivo, po): < 2%; absorption [1]: poorly absorbed orally
CCc1ccc(CCOc2ccc(CC3SC(=O)NC3=O)cc2)nc1 (centres unmarked) [Pioglitazone] |  |  | CYP3A4 and CYP2C9 | 2 h | 5 to 6 h | more than 99% | bioavailability [1]: ~80%; clearance half-life for the metabolites ([1]; three active metabolites): 16 to 24 h
COc1ccc(Cl)cc1C(=O)NCCc1ccc(S(=O)(=O)NC(=O)NC2CCCCC2)cc1 [Glibenclamide] |  |  |  |  |  |  | Action duration ([1]; in vivo): 12-16; Clearance ([1]; in vivo): Hepatic
CCOc1cc(CC(=O)N[C@@H](CC(C)C)c2ccccc2N2CCCCC2)ccc1C(=O)O [Repaglinide] |  |  | cytochrome P450 and by glucuronidases | 1 h | about 1 hours | more than 98% | eliminated, time following administration ([1]; in vivo): 4 to 6 h; absorption [1]: rapidly absorbed; insulinotropic response to a meal occurs after taking an oral dose ([1]; patients with type 2 diabetes, oral dose): ≤ 30 min
